This note sets out measurements from ChEMBL document CHEMBL3045279, “Chiral Synthesis of Pefurazoate Enantiomers and Their Antifungal Activity to Gibberella fujikuroi” (1992).

Format in all cases: functional
Assay [1] deals with Fusarium fujikuroi. As to the kind of experiment: Antifungal activity against Fusarium fujikuroi assessed as mycelial growth inhibition at 5 ppm after 4 days relative to control. The following applies: 96 h, read-out: GI.
The test system of assay [2] is Fusarium fujikuroi. As to the kind of experiment: Antifungal activity against Fusarium fujikuroi assessed as mycelial growth inhibition after 4 days. The following applies: 96 h; for EC50: read-out: ED50 (the source's name).
Assay [3] has as its system Fusarium fujikuroi. The experiment in a line: Antifungal activity against Fusarium fujikuroi assessed as mycelial growth inhibition at 0.15 ppm after 4 days relative to control. The following applies: 96 h, read-out: GI.
In assay [4] the test system is Fusarium fujikuroi. The experiment in a line: Antifungal activity against Fusarium fujikuroi assessed as mycelial growth inhibition at 0.31 ppm after 4 days relative to control. The following applies: 96 h, read-out: GI.
Assay [5] has as its system Fusarium fujikuroi. As to the kind of experiment: Antifungal activity against Fusarium fujikuroi assessed as mycelial growth inhibition at 0.63 ppm after 4 days relative to control. The following applies: 96 h, read-out: GI.
In assay [6] the test system is Fusarium fujikuroi. The experiment in a line: Antifungal activity against Fusarium fujikuroi assessed as mycelial growth inhibition at 1.25 ppm after 4 days relative to control. The following applies: 96 h, read-out: GI.
Assay [7] deals with Fusarium fujikuroi. As to the kind of experiment: Antifungal activity against Fusarium fujikuroi assessed as mycelial growth inhibition at 2.5 ppm after 4 days relative to control. The following applies: 96 h, read-out: GI.
Assay [8] relates to Fusarium fujikuroi. The experiment in a line: Inhibition of ergosterol biosynthesis in Fusarium fujikuroi assessed as [2-14C]-sodium acetate incorporation at 7.35 ppm after 2 hr by liquid scintillation counting analysis relative to control.
Assay [9] concerns Fusarium fujikuroi. The experiment in a line: Inhibition of ergosterol biosynthesis in Fusarium fujikuroi assessed as decrease in ergosterol level in total lipids measuring [2-14C]-sodium acetate incorporation at 0.24 ppm after 2 hr by liquid scintillation counting analysis (reference value: 6 to 12.3%).
Assay [10] deals with Fusarium fujikuroi. The experiment in a line: Inhibition of ergosterol biosynthesis in Fusarium fujikuroi assessed as increase in 24-methylenedihydrolanosterol level in total lipids measuring [2-14C]-sodium acetate incorporation at 0.24 ppm after 2 hr by liquid scintillation counting analysis (reference value: 4.8 to 7.4%).
Assay [11] has as its system Fusarium fujikuroi. The experiment in a line: Inhibition of ergosterol biosynthesis in Fusarium fujikuroi assessed as decrease in ergosterol level in total lipids measuring [2-14C]-sodium acetate incorporation at 7.35 ppm after 2 hr by liquid scintillation counting analysis (reference value: 6 to 12.3%).
Assay [12] has as its system Fusarium fujikuroi. The experiment in a line: Inhibition of ergosterol biosynthesis in Fusarium fujikuroi assessed as increase in 24-methylenedihydrolanosterol level in total lipids measuring [2-14C]-sodium acetate incorporation at 7.35 ppm after 2 hr by liquid scintillation counting analysis (reference value: 4.8 to 7.4%).
Assay [13] deals with Fusarium fujikuroi. As to the kind of experiment: Antifungal activity against Fusarium fujikuroi assessed as mycelial growth inhibition at 10 ppm after 4 days relative to control. The following applies: 96 h, read-out: GI.
Assay [14] has as its system Fusarium fujikuroi. The experiment in a line: Antifungal activity against Fusarium fujikuroi assessed as mycelial growth inhibition at 20 ppm after 4 days relative to control. The following applies: 96 h, read-out: GI.
The subject of assay [15] is Fusarium fujikuroi. The experiment in a line: Antifungal activity against Fusarium fujikuroi assessed as mycelial growth inhibition at 40 ppm after 4 days relative to control. The following applies: 96 h, read-out: GI.
Assay [16] concerns Fusarium fujikuroi. As to the kind of experiment: Inhibition of ergosterol biosynthesis in Fusarium fujikuroi assessed as [2-14C]-sodium acetate incorporation at 0.24 ppm after 2 hr by liquid scintillation counting analysis relative to control.

Converted amounts (≈) assume the structure as drawn.

What is called MIC is the smallest concentration in the dilution series that meets the test's criterion for growth inhibition. For the compound `C=CCCCOC(=O)C(CC)N(Cc1ccco1)C(=O)n1ccnc1` (racemic) [Pefurazoate], the inhibition of growth at 5 ppm in the assay with Fusarium fujikuroi [1] is 100%. In the assay with Fusarium fujikuroi [2], the MIC stood at 2.5 µg/mL (≈ 7.24 µM) and the EC50 is 0.49 µg/mL (≈ 1.42 µM). Moreover, the inhibition of growth at 0.15 ppm with Fusarium fujikuroi [3] is 20%. Moreover, the inhibition of growth at 0.31 ppm with Fusarium fujikuroi [4] stood at 35%. The inhibition of growth at 0.63 ppm in the assay on Fusarium fujikuroi [5] was found to be 58%. In the assay with Fusarium fujikuroi [6], the inhibition of growth at 1.25 ppm came out at 75%. Moreover, the inhibition of growth at 2.5 ppm with Fusarium fujikuroi [7] is 100%.
Usually inhibition stands for how much of the control response was suppressed. For `C=CCCCOC(=O)[C@@H](CC)N(Cc1ccco1)C(=O)n1ccnc1` [(R)-(+)-pefurazoate], in the assay on Fusarium fujikuroi [1], the inhibition of growth at 5 ppm is 45%. In the assay with Fusarium fujikuroi [2], the minimum inhibitory concentration (MIC) is 1.25 µg/mL (≈ 3.62 µM). For the same compound, the EC50 with Fusarium fujikuroi [2] stood at 7.35 µg/mL (≈ 21.3 µM). Besides, the inhibition at 7.35 ppm in the assay with Fusarium fujikuroi [8] is 47%; in the assay on Fusarium fujikuroi [11], 1.3%; in the assay on Fusarium fujikuroi [12], 14.2%. In addition, the inhibition at 0.24 ppm in the assay on Fusarium fujikuroi [9] is 3.2%; in the assay with Fusarium fujikuroi [10], 12.2%. In the assay on Fusarium fujikuroi [13], the inhibition of growth at 10 ppm came to 53%. Moreover, the inhibition of growth at 20 ppm in the assay with Fusarium fujikuroi [14] came out at 63%. For the same compound, the inhibition of growth at 40 ppm in the assay on Fusarium fujikuroi [15] was 73%. Also, in the assay with Fusarium fujikuroi [6], the inhibition of growth at 1.25 ppm turned out to be 25%. Moreover, the inhibition of growth at 2.5 ppm in the assay with Fusarium fujikuroi [7] stood at 38%.
On to `C=CCCCOC(=O)[C@H](CC)N(Cc1ccco1)C(=O)n1ccnc1` [(S)-(-)-pefurazoate], for which, in the assay on Fusarium fujikuroi [1], the inhibition of growth at 5 ppm was found to be 100%. Moreover, in the assay on Fusarium fujikuroi [2], the MIC was more than 40 µg/mL. Besides, the EC50 in the assay on Fusarium fujikuroi [2] is 0.24 µg/mL (≈ 0.695 µM). For the same compound, the inhibition at 0.24 ppm is 87% with Fusarium fujikuroi [16], 0.8% in the assay on Fusarium fujikuroi [9] and 13.6% in the assay on Fusarium fujikuroi [10]. Further, the inhibition of growth at 0.15 ppm with Fusarium fujikuroi [3] came out at 35%. For the same compound, in the assay on Fusarium fujikuroi [4], the inhibition of growth at 0.31 ppm was 60%. In addition, the inhibition of growth at 0.63 ppm with Fusarium fujikuroi [5] is 78%. The inhibition of growth at 1.25 ppm in the assay with Fusarium fujikuroi [6] is 100%. In the assay with Fusarium fujikuroi [7], the inhibition of growth at 2.5 ppm was 100%.
